The values below come from the Kinase Knowledgebase extract (Sharma et al. 2016).

For orientation: IC50 means the midpoint of a concentration-inhibition curve. A higher IC50 goes with a need for much substance.

For this assay, the target named is PIK3CB;PIK3CG;PIK3CD;PIK3CA (human) (UniProt P48736). The assay is described as follows: Enzyme Assay.

`O=C(c1nn(C2CCNCC2)c2c1CS(=O)(=O)c1ccccc1-2)N1CCOCC1`: the IC50 came to 1520 nM. In the case of `Cc1ccc(F)cc1-n1nc(C(=O)N2CCOCC2)c2c1-c1ccccc1S(=O)(=O)C2` it was 4200 nM; in that of `CC(C)(C)C1CCC(n2nc(C(=O)N3CCOCC3)c3c2-c2ccccc2S(=O)(=O)C3)CC1` (stereo not drawn), 4120 nM; in that of `O=C(c1nn([C@@H]2CCN(CCN3CCC(F)CC3)C2)c2c1CS(=O)(=O)c1ccccc1-2)N1CCOCC1`, 3690 nM. For `O=C(c1nn(C2CCNC2)c2c1CS(=O)(=O)c1ccccc1-2)N1CCOCC1` (stereo not drawn), the IC50 amounted to 4640 nM. In the case of `O=C(c1nn(-c2ccc(CN3CCC(F)CC3)nc2)c2c1CS(=O)(=O)c1ccccc1-2)N1CCOCC1` it was 1200 nM; in that of `COCCNCCN1CCC[C@H](n2nc(C(=O)N3CCOCC3)c3c2-c2ccccc2S(=O)(=O)C3)C1`, 34 nM.

On to `O=C(CC1CCCCC1)N1CCC[C@H](n2nc(C(=O)N3CCOCC3)c3c2-c2ccccc2S(=O)(=O)C3)C1`, for which the IC50 was found to be 735 nM.

As for `O=C(c1nn([C@H]2CCCN(C3CCCOC3)C2)c2c1CS(=O)(=O)c1c(F)cccc1-2)N1CCOCC1` (stereo partly drawn), the IC50 worked out at 25 nM. Compared with the last compound, the IC50 is about 29-fold lower. Next, `O=C(c1nn(C2CCCC(C(=O)N3CCOCC3)C2)c2c1CS(=O)(=O)c1ccccc1-2)N1CCOCC1` (stereo not drawn): 420 nM; `O=C(c1cccc(-n2nc(C(=O)N3CCOCC3)c3c2-c2ccccc2S(=O)(=O)C3)c1)N1CCOCC1`: 73 nM. Compound `COc1ccccc1-n1nc(C(=O)N2CCOCC2)c2c1-c1ccccc1S(=O)(=O)C2` showed a 50% inhibitory concentration (IC50) of 14800 nM. Consider `CN1CCN(Cc2ccc(-n3nc(C(=O)N4CCOCC4)c4c3-c3ccccc3S(=O)(=O)C4)cn2)CC1`, for which the IC50 was 335 nM. Next, `O=C(c1nn(C2CCCN(CCN3CC(F)(F)C3)C2)c2c1CS(=O)(=O)c1ccccc1-2)N1CCOCC1` (stereo not drawn): 36 nM. Next, `O=C(c1nn(-c2ccc(CN3CCOCC3)cc2)c2c1CS(=O)(=O)c1ncccc1-2)N1CCOCC1`: 400 nM; `CCCn1nc(C(=O)N2CCOCC2)c2c1-c1ccccc1S(=O)(=O)C2`: 641 nM; `O=C(c1nn(C2CCCN(CCN3CC(F)(F)C3)C2)c2c1CS(=O)(=O)c1c(F)cccc1-2)N1CCOCC1` (stereo not drawn): 38 nM. For the compound `O=C(c1nn(C2CCCNC2)c2c1CS(=O)(=O)c1cc(OC(F)(F)F)ccc1-2)N1CCOCC1` (stereo not drawn), the IC50 is 10500 nM. As to `CC(=O)Nc1nc2c(s1)S(=O)(=O)Cc1c(C(=O)N3CCOCC3)nn(C3CCOCC3)c1-2`, the IC50 came out at 284 nM.

`CS(=O)(=O)C1CCC(n2nc(C(=O)N3CCOCC3)c3c2-c2ccccc2S(=O)(=O)C3)CC1` (stereo not drawn) had an IC50 of 2100 nM. Next, `CNCc1ccc(-n2nc(C(=O)N3CCOCC3)c3c2-c2ccccc2S(=O)(=O)C3)cc1`: 226 nM; `COC1CCN(Cc2ccc(-n3nc(C(=O)N4CCOCC4)c4c3-c3ccccc3S(=O)(=O)C4)cc2)C1` (stereo not drawn): 59 nM. Next, `O=C(c1nn(-c2ccccc2)c2c1CS(=O)(=O)c1ccccc1-2)N1CCCOCC1`: 9070 nM; `O=C(c1nn(-c2cccc(CN3CCSCC3)c2)c2c1CS(=O)(=O)c1ccccc1-2)N1CCOCC1`: 232 nM. In the case of `COC1CN(Cc2cccc(-n3nc(C(=O)N4CCOCC4)c4c3-c3ccccc3S(=O)(=O)C4)c2)C1` it was 277 nM. With `CC1(C)CN(Cc2ccc(-n3nc(C(=O)N4CCOCC4)c4c3-c3ccccc3S(=O)(=O)C4)cc2)CCO1`, the IC50 came out at 120 nM. In the case of `COCCNc1ccc2c(c1)-c1c(c(C(=O)N3CCOCC3)nn1-c1ccccc1)CS2(=O)=O`, the IC50 came out at 902 nM. `COc1ccc2c(c1)S(=O)(=O)Cc1c(C(=O)N3CCOCC3)nn([C@H]3CCCN(CCC4CCOCC4)C3)c1-2`: the IC50 came out at 27 nM. This IC50 is about 33-fold lower than that of the compound before. Regarding `COCCN1CCCC(n2nc(C(=O)N3CCOCC3)c3c2-c2ccccc2S(=O)(=O)C3)C1` (stereo not drawn), the IC50 came out at 188 nM. This IC50 lies about 7-fold higher than the previous one. Compound `COCCCN1CCCC(n2nc(C(=O)N3CCOCC3)c3c2-c2ccccc2S(=O)(=O)C3)CC1` (stereo not drawn) showed an IC50 of 438 nM. In the case of `Cn1nc(C(=O)N2CCOCC2)c2c1-c1cc(F)ccc1S(=O)(=O)C2` it was 2220 nM; in that of `COCCN(CCOC)CCN1CCC[C@H](n2nc(C(=O)N3CCOCC3)c3c2-c2ccccc2S(=O)(=O)C3)C1`, 113 nM.

Take `O=C(c1nn(-c2ccccc2)c2c1CS(=O)(=O)c1ccc([N+](=O)[O-])cc1-2)N1CCOCC1`: the IC50 turned out to be 1830 nM. In the case of `O=C(c1ccc2c(c1)-c1c(c(C(=O)N3CCOCC3)nn1-c1ccccc1)CS2(=O)=O)N1CCOCC1` it was 3030 nM; in that of `Cc1cccc2c1S(=O)(=O)Cc1c(C(=O)N3CCOCC3)nn([C@H]3CCCN(CCN4CCOCC4)C3)c1-2`, 49 nM; in that of `O=C(c1nn(-c2cccc(CN3CCCC3)c2)c2c1CS(=O)(=O)c1ccccc1-2)N1CCOCC1`, 516 nM.

Regarding `O=C(c1nn(-c2ccccc2Cl)c2c1CS(=O)(=O)c1ccccc1-2)N1CCOCC1`, the IC50 was found to be 4020 nM. Compared with the last compound, the IC50 is about 7.8-fold higher. Next, `CC(C)(CN1CCOCC1)c1ccc(-n2nc(C(=O)N3CCOCC3)c3c2-c2ccccc2S(=O)(=O)C3)cc1`: 341 nM; `O=C(c1nn(C2CCCN(CCn3cccn3)C2)c2c1CS(=O)(=O)c1c(F)cccc1-2)N1CCOCC1` (stereo not drawn): 80 nM. Next, `Cc1nc(CN2CCCC(n3nc(C(=O)N4CCOCC4)c4c3-c3ccccc3S(=O)(=O)C4)C2)no1` (stereo not drawn): 134 nM. Next, `O=C(c1nn(C2CCC(CN3CCOCC3)CC2)c2c1CS(=O)(=O)c1ccccc1-2)N1CCOCC1` (stereo not drawn): 912 nM.

The compound `O=C(c1nn(-c2ccc(Br)cc2)c2c1CS(=O)(=O)c1ccccc1-2)N1CCOCC1` registered a concentration for half-maximal inhibition (IC50) of 1120 nM.

Turning to `O=C(c1nn(C2CCCN(CCn3cccn3)C2)c2c1CS(=O)(=O)c1ccccc1-2)N1CCOCC1` (stereo not drawn), the IC50 turned out to be 169 nM. `COCCN1CCC(n2nc(C(=O)N3CCOCC3)c3c2-c2ccccc2S(=O)(=O)C3)CC1` displayed an IC50 of 1920 nM. In the case of `Cc1ccccc1-c1ccc(-n2nc(C(=O)N3CCOCC3)c3c2-c2ccccc2S(=O)(=O)C3)cc1`, the IC50 worked out at 6470 nM. Next, `O=C(c1nn(C2CCN(CCC3CCOCC3)CC2)c2c1CS(=O)(=O)c1ccccc1-2)N1CCOCC1`: 692 nM; `O=C(c1nn(Cc2nc3ccccc3s2)c2c1CS(=O)(=O)c1ccccc1-2)N1CCOCC1`: 1490 nM. `O=C(c1nn(C2CCN(CCN3CC[C@@H](F)C3)C2)c2c1CS(=O)(=O)c1ccccc1-2)N1CCOCC1` (stereo partly drawn) had an IC50 of 120 nM. Next, `O=C(c1nn(-c2ccccc2)c2c1CS(=O)(=O)c1nccn1-2)N1CCOCC1`: 477 nM; `CC(=O)N1CCC(Cn2nc(C(=O)N3CCOCC3)c3c2-c2ccccc2S(=O)(=O)C3)CC1`: 2820 nM. `NC(=O)c1cccc2c1S(=O)(=O)Cc1c(C(=O)N3CCOCC3)nn(-c3ccccc3)c1-2` showed an IC50 of 7900 nM. Next, `O=C(c1nn(-c2cccc(-c3ccccc3)c2)c2c1CS(=O)(=O)c1ccccc1-2)N1CCOCC1`: 764 nM; `Cc1nc(-c2cccc(-n3nc(C(=O)N4CCOCC4)c4c3-c3ccccc3S(=O)(=O)C4)c2)n[nH]1`: 4860 nM; `COCCN1CCC(Cn2nc(C(=O)N3CCOCC3)c3c2-c2ccccc2S(=O)(=O)C3)CC1`: 681 nM. Next, `COC1CCN(Cc2cccc(-n3nc(C(=O)N4CCOCC4)c4c3-c3ccccc3S(=O)(=O)C4)c2)C1` (stereo not drawn): 350 nM; `CS(=O)(=O)NCc1ccc(-n2nc(C(=O)N3CCOCC3)c3c2-c2ccccc2S(=O)(=O)C3)cc1`: 421 nM; `O=C(c1nn([C@H]2CCCN(CCC3CCOCC3)C2)c2c1CS(=O)(=O)c1ccccc1-2)N1CCOCC1`: 34 nM. In the case of `O=C(c1nn(-c2cccc(-c3ccoc3)c2)c2c1CS(=O)(=O)c1ccccc1-2)N1CCOCC1` it was 826 nM; in that of `O=C(c1nn(C2CCCN(CCc3ccccc3)C2)c2c1CS(=O)(=O)c1ccccc1-2)N1CCOCC1` (stereo not drawn), 711 nM. Compound `O=C(c1nn(-c2ccc(CN3CCC(F)CC3)cc2)c2c1CS(=O)(=O)c1ccccc1-2)N1CCOCC1` returned an IC50 of 247 nM. Compound `O=C(c1nn(CCN2CCOCC2)c2c1CS(=O)(=O)c1ccccc1-2)N1CCOCC1` had an IC50 of 795 nM. Compound `O=C(c1nn(-c2ccccc2)c2c1CS(=O)(=O)c1ccncc1-2)N1CCOCC1` had an IC50 of 3050 nM.

`O=C(c1nn(C2CCCN(CCC3CCCCC3)C2)c2c1CS(=O)(=O)c1ccccc1-2)N1CCOCC1` (stereo not drawn) gave an IC50 of 155 nM. This IC50 lies about 20-fold lower than the previous one.

In turn, `CN1CCCC(N2CCC[C@H](n3nc(C(=O)N4CCOCC4)c4c3-c3ccccc3S(=O)(=O)C4)C2)C1` (stereo partly drawn) returned an IC50 of 18 nM. Consider `O=C(c1nn(C2CCC(F)(F)CC2)c2c1CS(=O)(=O)c1ccccc1-2)N1CCOCC1`, for which the IC50 was found to be 386 nM. Compared with the last compound, the IC50 is about 21-fold higher. As to `O=C(c1nn(Cc2cnccn2)c2c1CS(=O)(=O)c1ccccc1-2)N1CCOCC1`, the IC50 amounted to 10700 nM. In turn, `O=C(c1nn(-c2cccc(CN3CCOCC3)c2)c2c1CS(=O)(=O)c1ccccc1-2)N1CCOCC1` returned a 50% inhibitory concentration (IC50) of 1300 nM. For the compound `COCCNc1ccc2c(c1)-c1c(c(C(=O)N3CCOCC3)nn1C1CCCCC1)CS2(=O)=O`, the IC50 turned out to be 1390 nM.

`Cn1nc(C(=O)N2CCOCC2)c2c1-c1cc([N+](=O)[O-])ccc1S(=O)(=O)C2` displayed an IC50 of 2770 nM. Next, `COC(=O)CCN1CCC[C@H](n2nc(C(=O)N3CCOCC3)c3c2-c2ccccc2S(=O)(=O)C3)C1`: 48 nM; `O=C(c1nn(CCc2ccccc2)c2c1CS(=O)(=O)c1ccccc1-2)N1CCOCC1`: 1440 nM; `COCCNCc1ccc(-n2nc(C(=O)N3CCOCC3)c3c2-c2ccccc2S(=O)(=O)C3)cc1`: 164 nM. In the case of `O=C(c1nn([C@H]2CCCN(CCN3CCOCC3)C2)c2c1CS(=O)(=O)c1cc(F)ccc1-2)N1CCOCC1` it was 14 nM; in that of `COC1CN(CCN2CCC[C@H](n3nc(C(=O)N4CCOCC4)c4c3-c3ccccc3S(=O)(=O)C4)C2)C1`, 20 nM; in that of `CNc1cccc2c1S(=O)(=O)Cc1c(C(=O)N3CCOCC3)nn(-c3ccccc3)c1-2`, 3510 nM. Next, `O=C(c1nn([C@H]2CCCN(C3CCOCC3)C2)c2c1CS(=O)(=O)c1ccccc1-2)N1CCOCC1`: 80 nM. Take `O=C(c1nn(-c2ccc(CNC3CCOCC3)cc2)c2c1CS(=O)(=O)c1ccccc1-2)N1CCOCC1`: the IC50 was 107 nM.

`O=C(c1nn(-c2cccc(-c3ccncc3)c2)c2c1CS(=O)(=O)c1ccccc1-2)N1CCOCC1` yielded an IC50 of 193 nM.
